This is an account of results in US20250026743A1, “HETEROARYL-LINKED ANALOGS AS MGLU5 NEGATIVE ALLOSTERIC MODULATORS AND METHODS OF MAKING AND USING THE SAME” (Vanderbilt University, priority 2021, published 2025).

The target in data set [1] is T1, cytochrome P450 1A2 (Homo sapiens, UniProt P05177).
T1 sequence (P05177 1-516): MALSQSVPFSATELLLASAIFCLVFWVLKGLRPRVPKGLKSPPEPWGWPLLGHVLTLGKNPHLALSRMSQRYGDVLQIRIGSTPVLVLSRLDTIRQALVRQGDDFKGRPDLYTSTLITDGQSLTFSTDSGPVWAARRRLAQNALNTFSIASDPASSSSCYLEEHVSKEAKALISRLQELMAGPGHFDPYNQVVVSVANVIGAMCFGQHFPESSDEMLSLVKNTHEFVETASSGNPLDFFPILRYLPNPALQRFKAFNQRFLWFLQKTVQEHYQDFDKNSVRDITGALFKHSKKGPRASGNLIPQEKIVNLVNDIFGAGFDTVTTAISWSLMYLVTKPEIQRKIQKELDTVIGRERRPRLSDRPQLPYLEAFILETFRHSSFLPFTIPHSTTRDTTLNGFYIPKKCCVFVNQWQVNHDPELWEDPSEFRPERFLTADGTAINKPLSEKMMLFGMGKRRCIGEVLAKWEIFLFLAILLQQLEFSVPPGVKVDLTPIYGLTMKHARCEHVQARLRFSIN
The settings on record: cited from earlier work.

The conditions of data set [2]: intravenous administration, rhesus monkeys; cited from earlier work.
Data set [3] relates to N-methyl-D-aspartate (NMDA) receptor. The settings on record: at higher concentrations; cited from earlier work.
Data set [4] concerns the target mGlu4 (Homo sapiens, UniProt Q14833). Conditions: cited from earlier work.
Data set [5] addresses T2, hmGlu5 (Homo sapiens, UniProt P41594).
T2 construct: expressed in transfected cells; host or cells: HEK 293A
Briefly: mGlu5 Ca2+ flux assay in HEK 293A cells (negative allosteric modulation of glutamate EC80 response). The class given is cell-based. The settings on record: for remaining activity at 30 µM: HEK293-A, read-out: hmGlu5 NAM Emin (%). In outline:
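HEK 293A cells stably expressing rat or human mGlu5, Fluo-4 AM loaded; compound added 2.3 min before glutamate EC20, then EC80; Ca2+ fluorescence peak amplitudes (F/F0) normalised to glutamate max. IC50 from 4-parameter logistic fit, 10-point 1:3 curves, top 30 μM; partial NAMs plateau above 10% Glu Max.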
For orientation: A change in cytosolic calcium serves as a functional read-out for many receptors and channels.

[6] abbreviates: HEK 293A cells, Ca2+ flux, glutamate EC80, >10,000 = decrease without plateau, read-out: hmGlu5 NAM IC50.

Like-named read-outs stand apart in the source and are kept apart here. Where only a bound is given, the exact number is not on record here.

T2 sequence (P41594 21-1212): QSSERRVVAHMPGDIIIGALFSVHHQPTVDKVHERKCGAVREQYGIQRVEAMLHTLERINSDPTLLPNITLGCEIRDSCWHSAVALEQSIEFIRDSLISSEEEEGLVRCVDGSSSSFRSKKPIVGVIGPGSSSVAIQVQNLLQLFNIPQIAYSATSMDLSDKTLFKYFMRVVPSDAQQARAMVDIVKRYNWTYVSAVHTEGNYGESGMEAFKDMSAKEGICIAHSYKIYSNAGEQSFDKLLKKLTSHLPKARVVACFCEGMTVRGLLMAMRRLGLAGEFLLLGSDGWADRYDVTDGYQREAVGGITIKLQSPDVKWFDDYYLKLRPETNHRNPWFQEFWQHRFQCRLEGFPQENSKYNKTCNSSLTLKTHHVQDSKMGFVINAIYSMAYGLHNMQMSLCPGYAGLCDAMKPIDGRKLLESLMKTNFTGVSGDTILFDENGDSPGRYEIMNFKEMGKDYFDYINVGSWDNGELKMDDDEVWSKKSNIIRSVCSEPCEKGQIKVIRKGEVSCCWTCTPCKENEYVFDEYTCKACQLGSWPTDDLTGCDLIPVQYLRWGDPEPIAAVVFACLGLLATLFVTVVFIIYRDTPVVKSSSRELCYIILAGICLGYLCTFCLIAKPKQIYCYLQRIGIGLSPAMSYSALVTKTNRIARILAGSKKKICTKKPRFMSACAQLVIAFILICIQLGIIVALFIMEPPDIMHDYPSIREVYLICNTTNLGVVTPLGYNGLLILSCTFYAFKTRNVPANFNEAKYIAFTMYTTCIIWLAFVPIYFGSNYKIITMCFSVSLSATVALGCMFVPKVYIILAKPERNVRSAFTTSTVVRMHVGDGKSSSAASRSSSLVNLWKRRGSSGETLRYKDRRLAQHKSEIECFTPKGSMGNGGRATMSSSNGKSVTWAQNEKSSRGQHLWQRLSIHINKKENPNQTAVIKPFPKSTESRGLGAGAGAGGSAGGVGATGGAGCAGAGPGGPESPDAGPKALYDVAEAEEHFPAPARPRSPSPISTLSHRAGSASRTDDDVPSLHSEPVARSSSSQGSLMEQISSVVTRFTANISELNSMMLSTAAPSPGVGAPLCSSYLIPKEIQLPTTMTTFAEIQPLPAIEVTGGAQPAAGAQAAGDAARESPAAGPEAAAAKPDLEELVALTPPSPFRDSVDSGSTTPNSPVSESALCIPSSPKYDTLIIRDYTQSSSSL
Chain of mGlu4 (Q14833 33-912): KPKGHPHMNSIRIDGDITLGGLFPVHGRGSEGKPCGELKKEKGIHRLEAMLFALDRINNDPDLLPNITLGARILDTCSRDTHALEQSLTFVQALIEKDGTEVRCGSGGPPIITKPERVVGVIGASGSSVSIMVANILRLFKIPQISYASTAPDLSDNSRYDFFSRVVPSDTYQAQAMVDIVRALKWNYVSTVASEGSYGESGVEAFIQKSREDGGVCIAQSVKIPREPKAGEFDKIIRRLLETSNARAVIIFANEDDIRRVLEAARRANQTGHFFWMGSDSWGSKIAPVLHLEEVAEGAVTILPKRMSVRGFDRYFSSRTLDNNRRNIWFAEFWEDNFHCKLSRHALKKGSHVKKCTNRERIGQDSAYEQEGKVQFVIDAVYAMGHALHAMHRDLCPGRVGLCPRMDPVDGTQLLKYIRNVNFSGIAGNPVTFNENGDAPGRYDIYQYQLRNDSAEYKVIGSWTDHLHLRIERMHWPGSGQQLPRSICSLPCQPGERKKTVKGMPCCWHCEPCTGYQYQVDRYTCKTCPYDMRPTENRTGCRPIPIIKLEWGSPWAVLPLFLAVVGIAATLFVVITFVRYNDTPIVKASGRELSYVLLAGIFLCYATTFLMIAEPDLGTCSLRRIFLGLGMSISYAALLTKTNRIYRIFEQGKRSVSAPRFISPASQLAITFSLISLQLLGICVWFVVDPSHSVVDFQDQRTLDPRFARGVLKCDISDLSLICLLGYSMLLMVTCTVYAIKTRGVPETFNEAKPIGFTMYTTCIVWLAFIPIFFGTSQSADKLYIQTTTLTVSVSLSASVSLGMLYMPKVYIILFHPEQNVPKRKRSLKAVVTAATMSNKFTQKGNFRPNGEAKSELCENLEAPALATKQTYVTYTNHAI

In the case of `Cc1nc(C#Cc2cccnc2)cs1` [MTEP, 3-[(2-methyl-1,3-thiazol-4-yl)ethynyl]pyridine], in data set [1], the “inhibition of cytochrome P450 1A2” value is “potent inhibitor”. Moreover, the clearance result in data set [2] was “efficiently cleared”.

As to `Cc1cccc(C#Cc2ccccc2)n1` [MPEP, 2-methyl-6-(phenylethynyl) pyridine], the “inhibition of NMDA receptor activity” value in data set [3] is listed as “directly inhibit”. Moreover, the “modulation of mGlu4” value in data set [4] was “positive allosteric modulator”.

Take `Fc1ccc(-c2nc(-c3cc(-c4cncc(F)c4)cc(C(F)F)n3)no2)nc1` [Compound 61, 3-(6′-(difluoromethyl)-5-fluoro-[3,4′-bipyridin]-2′-yl)-5-(5-fluoropyridin-2-yl)-1,2,4-oxadiazole]: the remaining activity at 30 µM in data set [5] (% Glu max at 30 μM) was found to be 6%. Further, the IC50 – broadly, the point on the concentration scale where inhibition reaches its midpoint – in data set [5] (setting [6]) was 0.125 µM.

For `Cc1ccncc1-c1cc(-c2noc(-c3cc(F)ccn3)n2)ncc1F` [Compound 3, 3-(5′-fluoro-4-methyl-[3,4′-bipyridin]-2′-yl)-5-(4-fluoropyridin-2-yl)-1,2,4-oxadiazole], the remaining activity at 30 µM in data set [5] (% Glu max at 30 μM) came out at 2%. Besides, the IC50 in data set [5] (setting [6]) worked out at 0.744 µM.

`Cc1nc(-c2noc(-c3ccc(F)cn3)n2)cc(-c2cnccc2Cl)c1F` [Compound 69, 3-(4-chloro-5′-fluoro-6′-methyl-[3,4′-bipyridin]-2′-yl)-5-(5-fluoropyridin-2-yl)-1,2,4-oxadiazole]: the remaining activity at 30 µM in data set [5] (% Glu max at 30 μM) was found to be 3%. Also, the IC50 in data set [5] (setting [6]) came out at 0.109 µM.

Turning to `Cc1nc(-c2nnc(-c3ccncc3)o2)cc(-c2cncc(F)c2)c1F` [Compound 81, 2-(5,5′-difluoro-6′-methyl-[3,4′-bipyridin]-2′-yl)-5-(pyridin-4-yl)-1,3,4-oxadiazole], in data set [5], the concentration for half-maximal inhibition (IC50) was more than 10 µM and the remaining activity at 30 µM came to 55%.

With `Cc1ccncc1-c1cc(-c2noc(-c3cc(Cl)ccn3)n2)nc(C)c1F` [Compound 91, 5-(4-chloropyridin-2-yl)-3-(5′-fluoro-4,6′-dimethyl-[3,4′-bipyridin]-2′-yl)-1,2,4-oxadiazole], in data set [5] (% Glu max at 30 μM), the remaining activity at 30 µM came to 2%. The IC50 in data set [5] (setting [6]) worked out at 0.155 µM.

Turning to `Cc1ccncc1-c1cc(-c2noc(-c3ccccn3)n2)nc(C)c1F` [Compound 19, 3-(5′-fluoro-4,6′-dimethyl-[3,4′-bipyridin]-2′-yl)-5-(pyridin-2-yl)-1,2,4-oxadiazole], the remaining activity at 30 µM in data set [5] (% Glu max at 30 μM) was found to be 2%. Also, in data set [5] (setting [6]), the IC50 came out at 0.233 µM.

In the case of `Cc1nc(-c2noc(-c3ccc(F)cn3)n2)cc(-c2cncc(C(F)(F)F)c2)c1F` [Compound 33, 3-(5′-fluoro-6′-methyl-5-(trifluoromethyl)-[3,4′-bipyridin]-2′-yl)-5-(5-fluoropyridin-2-yl)-1,2,4-oxadiazole], the remaining activity at 30 µM in data set [5] (% Glu max at 30 μM) amounted to 9%. Besides, the 50% inhibitory concentration (IC50) in data set [5] (setting [6]) stood at 1.02 µM.

Consider `[2H]C([2H])([2H])c1cc(-c2cncc(F)c2)cc(-c2nnc(-c3ccc(F)cn3)o2)n1` [Compound 85, 2-(5-fluoro-6′-(methyl-d3)-[3,4′-bipyridin]-2′-yl)-5-(5-fluoropyridin-2-yl)-1,3,4-oxadiazole], for which the remaining activity at 30 µM in data set [5] (% Glu max at 30 μM) turned out to be 1%. Also, the IC50 in data set [5] (setting [6]) amounted to 0.45 µM.

As for `Cc1ccnc(-c2nc(-c3cc(-c4cnccc4C)c(F)c(C)n3)no2)c1` [Compound 88, 3-(5′-fluoro-4,6′-dimethyl-[3,4′-bipyridin]-2′-yl)-5-(4-methylpyridin-2-yl)-1,2,4-oxadiazole], in data set [5] (% Glu max at 30 μM), the remaining activity at 30 µM is 3%. Besides, the IC50 in data set [5] (setting [6]) was found to be 0.245 µM.

Turning to `Cc1nc(-c2noc(-c3ccccc3F)n2)cc(-c2cncc(F)c2)c1F` [Compound 47, 3-(5,5′-difluoro-6′-methyl-[3,4′-bipyridin]-2′-yl)-5-(2-fluorophenyl)-1,2,4-oxadiazole], the remaining activity at 30 µM in data set [5] (% Glu max at 30 μM) came to 34%. The IC50 in data set [5] (setting [6]) worked out at 5.5 µM.

As to `COc1ncc(-c2cc(-c3nnc(-c4ccc(F)cn4)o3)nc(C)c2F)cc1F` [Compound 76, 2-(5,5′-difluoro-6-methoxy-6′-methyl-[3,4′-bipyridin]-2′-yl)-5-(5-fluoropyridin-2-yl)-1,3,4-oxadiazole], the remaining activity at 30 µM in data set [5] (% Glu max at 30 μM) was 9%. In data set [5] (setting [6]), the IC50 was 5.75 µM.

On to `Cc1cc(O[C@@H]2CCOC2)cc(-c2noc(-c3ccccn3)n2)n1` [Compound 113, (R)-3-(6-methyl-4-((tetrahydrofuran-3-yl)oxy)pyridin-2-yl)-5-(pyridin-2-yl)-1,2,4-oxadiazole], for which, in data set [5] (% Glu max at 30 μM), the remaining activity at 30 µM amounted to 2%. The concentration for half-maximal inhibition (IC50) in data set [5] (setting [6]) worked out at 0.046 µM.

For `COc1c(-c2cncc(F)c2)cc(-c2noc(-c3ccc(F)cn3)n2)nc1C` [Compound 11, 3-(5-fluoro-5′-methoxy-6′-methyl-[3,4′-bipyridin]-2′-yl)-5-(5-fluoropyridin-2-yl)-1,2,4-oxadiazole], in data set [5] (% Glu max at 30 μM), the remaining activity at 30 µM was found to be 2%. For the same compound, the IC50 in data set [5] (setting [6]) amounted to 0.452 µM.
